The results in this text go back to publication PMC7382147, “An effective UFLC–MS/MS method used to study pharmacokinetics of major constituents of Fukeqianjin formula in rat plasma” (Chinese Medicine, 2020).

A short description of series [1]: Long-term stability of QC samples (−20 °C for 20 days). The class given is physicochemical, rat. The settings on record: plasma QC. As for the experimental part:
(§1) Aliquots of 100 μL plasma samples were mixed with 10 μL I.S. samples (1 μg/mL, in MeOH), then added with 500 μL ACN, respectively, and vortexed for 5 min, centrifugated at 10,000 rpm for 10 min, the supernatants were transferred into clean vials and dried in a vacuum centrifugal concentrator at 1200 rpm, 37 °C. After that, 100 μL ACN was added and ultrasonic (frequency 40 kHz, power 250 W) extracted for 5 min to dissolve the dry residue, vortexed for 1 min and centrifugated at 10,000 rpm for 5 min, 1 μL of each final supernatant was injected into UFLC–MS/MS for analysis.
(§2) Six replicates of low, medium and high concentrations of quality control (QC) samples were used to verify the stabilities under different conditions including: place at room temperature for 8 h, freeze (− 20 °C) and thaw for three times, and store at − 20 °C for 20 days.

Series [2] is described as follows: Pharmacokinetic study in rat plasma after oral administration of FKQJF extract (UFLC–MS/MS). Format: in vivo, Sprague-Dawley (SD) rats. The settings on record: for AUC(0-inf) / AUC(0-t) / Cmax / half-life / MRT last / MRT inf / Tmax: Sprague-Dawley, oral FKQJF extract, single dose 3.2 g/kg, mean ± SD; for MRT last: read-out: MRT0→t; for MRT inf: read-out: MRT0→∞; for Tmax: read-out: Tmax. As for the experimental part: as §1
An 8050 UFLC–MS/MS system equipped with LC-30A binary pump, a SIL-30AC autosampler, a SPD-M30A PDA detector, a CTO-20AC column oven, and a 8050 triple quadrupole mass spectrometer with an electrospray ionization source (ESI) was applied to detect and quantify FKQJF compounds in plasma samples. Data were acquired and processed with the software LabSolution (Ver. 5.6).
A Kinetex XB-C18 HPLC column (100 × 2.1 mm, 2.6 μm) linked with an equivalent guard column was used for chromatographic separation. The aqueous phase contained 0.2% formic acid was used as mobile phase A, and organic phase ACN as mobile phase B. The gradient elution method using in this program was: 3–5 min, 28–31% B; 5–7 min, 31–34% B; 7–9 min, 34–65% B; 9–10 min, 65–95% B; 10–11.5 min, 95% B. The flow rate of mobile phase, column temperature and autosampler temperature was 0.4 mL/min, 30 °C and 4 °C, respectively. The injection volume of each sample was set as 1 μL. The main MS spectrum parameters were set as follows: the flow rate of drying gas (N2) was 10.0 L/min; the atomized gas was 3.0 L/min and the heating gas flow rate was 10.0 L/min. The main temperatures of interface, desolvation and heat block was 300 °C, 250 °C and 400 °C, respectively. And, the interface and detector voltage were 3 kV and 1.8 kV.
Rats were divided into a blank group and a FKQJF administration group (6 rats for each), and fasted for 24 h. Each rat of the administration group was given FKQJF extract suspension at a single dose of 3.2 g FKQJF/kg body weight through oral administration in parallel. Blood samples (0.25 mL) were gathered from the orbital venous plexus of each rat, with FKQJF group gathered at 14 serial timepoints (6 rats for each) as 0.083 h, 0.16 h, 0.33 h, 0.5 h, 0.75 h, 1.0 h, 1.5 h, 2 h, 3 h, 4 h, 6 h, 8 h, 12 h and 24 h after drug administration. The blood samples were centrifugated at 6000g for 10 min to isolate plasma and stored at − 20 °C for further analysis.
Data were analyzed using the Drug and Statistics (DAS) Software version 2.0 (DAS 2.0, Mathematical Pharmacology Professional Committee of China, Shanghai, China). The non-compartmental mode was applied to obtain the following PK parameters: area under the plasma concentration–time curve from time zero to the time of last quantifiable concentration (AUC0→t) and area under the plasma concentration–time curve to time infinity (AUC0→∞), the elimination half-life (t1/2), mean retention time to last sampling time (MRT0→t) and mean retention time to infinity (MRT0→∞). The maximum plasma concentration (Cmax) and the time to maximum concentration (Tmax) were observed directly from the concentration–time (C–T) curves and measured data. All data are presented as mean ± SD.

Series [3] can be described thus: Freeze–thaw stability of QC samples (−20 °C, three times). The class given is physicochemical, rat. The settings on record: plasma QC, freeze (−20 °C) and thaw three times. As for the experimental part: as §1, §2
Series [4] is described as follows: Ordinary stability of QC samples (room temperature for 8 h). Format: physicochemical, rat. The settings on record: plasma QC, room temperature 8 h. As for the experimental part: as §1, §2

For orientation: AUC(0-inf) means the area under the concentration-time curve extrapolated to infinity. A high value points to high exposure. Usually AUC(0-t) stands for exposure summed from dosing to a finite time, without extrapolation to infinity. As a reminder, the Cmax is the peak of the concentration-time curve. Usually half-life stands for the time needed for the level to fall by half in the phase considered. Low values mean rapid decline, high ones slow decline. What is called Tmax is the time from dosing to the highest level. Turning to `COc1cc(O[C@@H]2O[C@H](CO)[C@@H](O)[C@H](O)[C@H]2O)cc(OC)c1OC` [Analyte 1, 3,4,5-trimethoxyphenol-1-O-β-D-glucopyranoside], the “Long-term stability Mean” value in series [1] (spiked 50 ng/mL) came to 86.86%. Besides, the “Long-term stability Mean” value in series [1] (spiked 250 ng/mL) is reported as 89.00%. For the same molecule, the “Long-term stability Mean” value in series [1] (spiked 500 ng/mL) is reported as 103.76%. In series [2], this molecule showed an AUC(0-inf) of 115 ± 15.8 ng·h/mL, an AUC(0-t) of 109 ± 11.4 ng·h/mL, a Cmax of 48 ± 4.41 ng/mL and a half-life of 1.79 ± 0.44 h. Moreover, in series [2], the MRT last turned out to be 2.6 ± 0.12 h, the MRT inf amounted to 3.37 ± 0.26 h and the Tmax was 2 h. The “shape of the plasma concentration–time curve” value in series [2] (oral FKQJF extract 3.2 g/kg) is given as “double-peaks”. Further, in series [3] (spiked 50 ng/mL), the “Freeze–thaw stability Mean” value is given as 112.34%. The “Freeze–thaw stability Mean” value in series [3] (spiked 250 ng/mL) amounted to 99.57%. Further, in series [3] (spiked 500 ng/mL), the “Freeze–thaw stability Mean” value is listed as 106.56%. Further, the “Ordinary stability Mean” value in series [4] (spiked 50 ng/mL) is 80.92%. Further, in series [4] (spiked 250 ng/mL), the “Ordinary stability Mean” value worked out at 104.48%. In addition, in series [4] (spiked 500 ng/mL), the “Ordinary stability Mean” value turned out to be 117.94%.
`COC(=O)c1ccc(O)cn1` [Analyte 2, 5-hydroxypicolinic acid methyl ester]: the “Long-term stability Mean” value in series [1] (spiked 50 ng/mL) turned out to be 87.08%. Further, in series [1] (spiked 250 ng/mL), the “Long-term stability Mean” value is 83.50%. The “Long-term stability Mean” value in series [1] (spiked 500 ng/mL) is 112.17%. In series [2], this molecule gave an AUC(0-inf) of 3110 ± 38.7 ng·h/mL, an AUC(0-t) of 2970 ± 169 ng·h/mL, a Cmax of 477 ± 33.3 ng/mL and a half-life of 5.27 ± 2.94 h. In addition, in series [2], the MRT last is 6.51 ± 0.66 h, the MRT inf came to 8.09 ± 1.32 h and the Tmax stood at 2.17 ± 0.76 h. Moreover, the “Freeze–thaw stability Mean” value in series [3] (spiked 50 ng/mL) was found to be 98.92%. Further, the “Freeze–thaw stability Mean” value in series [3] (spiked 250 ng/mL) is 99.07%. Moreover, in series [3] (spiked 500 ng/mL), the “Freeze–thaw stability Mean” value is 86.48%. Moreover, the “Ordinary stability Mean” value in series [4] (spiked 50 ng/mL) is given as 106.33%. Besides, in series [4] (spiked 250 ng/mL), the “Ordinary stability Mean” value was 86.35%. For the same molecule, the “Ordinary stability Mean” value in series [4] (spiked 500 ng/mL) stood at 95.34%.
With `O=Cc1ccc2n1C[C@]1(C[C@H](O)[C@@H](CO)O1)OC2` [Analyte 3, acortatarin A], the “Long-term stability Mean” value in series [1] (spiked 50 ng/mL) was found to be 81.68%. Moreover, the “Long-term stability Mean” value in series [1] (spiked 250 ng/mL) is recorded as 86.77%. The “Long-term stability Mean” value in series [1] (spiked 500 ng/mL) turned out to be 93.19%. In addition, in series [2], the AUC(0-inf) amounted to 489 ± 37.6 ng·h/mL, the AUC(0-t) amounted to 463 ± 29.5 ng·h/mL, the Cmax was found to be 102 ± 18.4 ng/mL and the half-life was 2.66 ± 0.69 h. In series [2], the MRT last was found to be 3.67 ± 0.14 h, the MRT inf turned out to be 4.32 ± 0.47 h and the Tmax worked out at 2.33 ± 0.58 h. Also, the “Freeze–thaw stability Mean” value in series [3] (spiked 50 ng/mL) came out at 84.84%. Further, in series [3] (spiked 250 ng/mL), the “Freeze–thaw stability Mean” value stood at 92.61%. Moreover, the “Freeze–thaw stability Mean” value in series [3] (spiked 500 ng/mL) was determined as 90.89%. The “Ordinary stability Mean” value in series [4] (spiked 50 ng/mL) amounted to 93.52%. The “Ordinary stability Mean” value in series [4] (spiked 250 ng/mL) is recorded as 84.19%. Also, in series [4] (spiked 500 ng/mL), the “Ordinary stability Mean” value was 109.98%.
